{"source": "patent US20240226117A1", "about": "“TREATMENT OF CONGENITAL ADRENAL HYPOPLASIA” (ReveraGen BioPharma, Inc., priority 2021, published 2024)", "key": {"DMD participants [1]": {"system": "DMD participants", "assay": "Prespecified safety evaluation: height percentile for age and BMI z-score", "type": "in vivo, human", "settings": "for Mean BMI z-score, change from baseline (SD): 0.75 mg/kg/day", "procedure": "As with the […] comparators, group-matching criteria were prespecified in the iSAP, and 2 independent statisticians carried out the participant matching. […] There was no corresponding 12-month assessment in vamorolone-treated participants. (Assessments of vamorolone-treated trial participants were 0, 3, 6, and 18 months). Standing height and weight were assessed at each study visit. Height z-score, body mass index (BMI: kg/m^2), and BMI z-score were calculated centrally. AE reporting was done per protocol in the vamorolone trials. The current study is the first to evaluate the longer-term tolerability, efficacy, and safety of vamorolone in DMD. […] Given the variable timing of dose escalations, it was prespecified that initial analyses of drug-related efficacy and safety would be limited to those participants who had 18 months of treatment with 2.0 mg/kg/day vamorolone or more (dose group C+dose group D: n=23). Outcomes for these participants were compared to a group-matched cohort from the […] over 18 months (corticosteroid-naïve, n=19: corticosteroid-treated, n=68). Participants were matched for age and treatment period (+1 month), matching criteria were prespecified in the statistical analysis plan. Two independent statisticians carried out the matching. […] Participants in the corticosteroid-treated […] group were treated for at least 18 months, but the total duration, dose, and regimens varied. Statistical analyses were done on paired longitudinal outcome data using an analysis of covariance (ANCOVA) approach with change from baseline (VBP15-002) to month 18 (midpoint of VBP15-LTE). Baseline response and age were included as covariates. For the vamorolone-treated participants, age was calculated as (date of informed consent minus birthdate)/365.25. For the DNHS participants, age was calculated as (date of baseline visit used minus birthdate)/365.25. The baseline visit for a DNHS participant was the first visit. […] Timed function tests were analyzed as velocity scores to limit the impact of participants who could not perform the test (velocity=0). Velocity measures are variance-stabilizing transformations, suppressing extreme raw outliers from raw values in seconds; these help with distributional assumptions of the statistical models/tests used. Raw data (seconds) are also reported. Velocity scores for […] (event/second), TTRW (meters/second), and […] (event/second) were inputted as 0 at the first response missing due to inability to perform the test. All other data were observed values only, without imputation. No adjustments for multiplicity on inferential statistics were specified in the iSAP."}, "ambulant boys with DMD [2]": {"system": "ambulant boys with DMD", "assay": "VBP15-004 growth (height Z score)", "type": "in vivo, human", "settings": "prednisone 0.75 mg/kg/day"}, "ambulant boys with DMD [3]": {"system": "ambulant boys with DMD", "settings": "male, human, in vivo, 24 weeks"}, "[4]": {"target": "T1, mineralocorticoid receptor (Homo sapiens, UniProt P08235)", "T1 sequence (P08235 1-984)": "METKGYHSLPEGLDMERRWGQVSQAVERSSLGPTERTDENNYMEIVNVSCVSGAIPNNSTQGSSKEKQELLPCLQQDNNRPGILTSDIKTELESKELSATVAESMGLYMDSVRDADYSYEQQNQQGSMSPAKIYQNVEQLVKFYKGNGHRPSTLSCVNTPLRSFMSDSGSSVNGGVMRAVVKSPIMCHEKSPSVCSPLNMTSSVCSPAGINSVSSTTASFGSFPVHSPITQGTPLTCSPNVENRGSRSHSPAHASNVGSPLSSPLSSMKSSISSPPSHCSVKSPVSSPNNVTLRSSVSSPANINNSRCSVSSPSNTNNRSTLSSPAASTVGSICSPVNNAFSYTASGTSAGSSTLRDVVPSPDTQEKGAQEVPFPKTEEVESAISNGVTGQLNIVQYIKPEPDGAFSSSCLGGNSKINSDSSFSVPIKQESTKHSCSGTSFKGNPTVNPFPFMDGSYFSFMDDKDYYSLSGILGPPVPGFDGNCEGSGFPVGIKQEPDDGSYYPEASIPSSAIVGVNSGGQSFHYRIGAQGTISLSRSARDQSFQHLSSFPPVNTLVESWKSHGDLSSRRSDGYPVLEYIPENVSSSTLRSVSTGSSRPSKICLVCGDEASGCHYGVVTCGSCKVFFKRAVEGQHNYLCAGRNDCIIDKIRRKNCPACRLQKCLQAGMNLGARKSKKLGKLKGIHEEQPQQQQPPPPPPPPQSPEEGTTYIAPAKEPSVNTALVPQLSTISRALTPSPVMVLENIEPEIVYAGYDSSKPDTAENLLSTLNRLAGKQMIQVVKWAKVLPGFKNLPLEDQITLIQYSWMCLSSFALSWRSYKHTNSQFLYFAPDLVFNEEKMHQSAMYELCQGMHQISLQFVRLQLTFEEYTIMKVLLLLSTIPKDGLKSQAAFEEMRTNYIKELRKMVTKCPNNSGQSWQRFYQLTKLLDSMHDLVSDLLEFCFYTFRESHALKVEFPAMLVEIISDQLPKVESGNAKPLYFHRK", "settings": "background statement; cited from earlier work"}, "ambulant boys with DMD [5]": {"system": "ambulant boys with DMD", "assay": "VBP15-004 adverse events and behavior AESIs", "settings": "PDN 0.75 mg, N = 31, 24 weeks"}, "DMD participants [6]": {"system": "DMD participants", "settings": "cited from earlier work"}, "DMD subjects": {"system": "DMD subjects", "settings": "cited from earlier work"}, "[7]": {"settings": "CINRG prednisone trial, daily 0.75 mg/kg/day, 12 months"}, "[8]": {"settings": "vamorolone 18-month treatment versus prednisone trial 12-month treatment, ANCOVA"}, "[9]": {"settings": "CINRG DNHS, deflazacort n = 94, prednisone n = 80"}, "[10]": {"settings": "Griggs et al. 2016, 12-month trial, 0.9 mg/kg/day deflazacort (n = 68), 0.75 mg/kg/day prednisone (n = 63)"}}, "note": "Like-named read-outs stand apart in the source and are kept apart here.", "data": [{"smiles": "C[C@]12C=CC(=O)C=C1CC[C@@H]1[C@@H]2C(=O)C[C@@]2(C)[C@H]1CC[C@]2(O)C(=O)CO", "note": "[Prednisone, prednisone, reference compound]", "values": [{"measurement": "Mean BMI z-score, value (SD) at 12 months of treatment", "setting": "DMD participants [1]; [7]", "result": "1.068 (1.05)"}, {"measurement": "Mean height percentile for age, change from baseline (SD)", "setting": "DMD participants [1]; [7]", "result": "−3.76 (10.44)"}, {"measurement": "Mean height percentile for age, value (SD) at 12 months of treatment", "setting": "DMD participants [1]; [7]", "result": "26.14 (24.21)"}, {"measurement": "Mean BMI z-score, change from baseline (SD)", "setting": "DMD participants [1]; [7]", "result": "0.459 (0.407)"}, {"measurement": "Mean BMI z-score, change from baseline (SD)", "setting": "DMD participants [1]; CINRG prednisone trial, daily 0.75 mg/kg/day, 12 months, listed as prednisone", "result": 0.46}, {"measurement": "Mean BMI z-score, LS mean difference (SE)", "setting": "DMD participants [1]; [8]", "result": "0.066 (0.193)"}, {"measurement": "Mean height percentile for age, LS mean difference (SE)", "setting": "DMD participants [1]; [8]", "result": "10.37 (3.86)"}, {"measurement": "change in height Z scores from baseline to Week 24", "setting": "ambulant boys with DMD [2]", "result": "growth deceleration"}, {"measurement": "clinically relevant psychiatric events, subjects", "setting": "ambulant boys with DMD [3]", "result": 19.4, "unit": "%"}, {"measurement": "incidence of behavior problems", "setting": "ambulant boys with DMD [3]", "result": 32.3, "unit": "%"}, {"measurement": "moderate/severe behavior problems, subjects", "setting": "ambulant boys with DMD [3]", "result": 22.6, "unit": "%"}, {"measurement": "activity at the mineralocorticoid receptor", "setting": "[4]", "result": "agonists"}, {"measurement": "Any Behavior AESI, moderate/severe: F (AE count)", "setting": "ambulant boys with DMD [5]", "result": 8}]}, {"smiles": "CC(=O)OCC(=O)[C@@]12N=C(C)O[C@@H]1C[C@H]1[C@@H]3CCC4=CC(=O)C=C[C@]4(C)[C@H]3[C@@H](O)C[C@@]12C", "note": "[Deflazacort, deflazacort]", "values": [{"measurement": "Incidence of physician-reported Cushingoid", "setting": "DMD participants [6]; [9]", "result": 72, "unit": "%"}, {"measurement": "Incidence of physician-reported behavior change", "setting": "DMD participants [6]; [9]", "result": 33, "unit": "%"}, {"measurement": "Incidence of physician-reported weight gain", "setting": "DMD participants [6]; [9]", "result": 63, "unit": "%"}, {"measurement": "Incidence of physician-reported Cushingoid", "setting": "DMD participants [6]; [10]", "result": 60.3, "unit": "%"}, {"measurement": "Incidence of physician-reported behavior change", "setting": "DMD participants [6]; [10]", "result": 9, "unit": "%"}, {"measurement": "Incidence of physician-reported hypertrichosis/hirsutism", "setting": "DMD participants [6]; [10]", "result": 35, "unit": "%"}, {"measurement": "Incidence of physician-reported weight gain", "setting": "DMD participants [6]; [10]", "result": 27.9, "unit": "%"}, {"measurement": "activity at the mineralocorticoid receptor", "setting": "[4]", "result": "agonists"}, {"measurement": "LS Mean change in height percentiles for age", "setting": "DMD subjects; DMD children treated with deflazacort, N = 40, 12 months treatment", "result": "−11.4"}, {"measurement": "change in height percentile over a 12-month treatment period", "setting": "DMD subjects; Griggs et al. 2016, DMD", "result": "−11.43", "unit": "percentile"}]}]}
